Experimental findings from US8507692B2, “Ester compound and use thereof” (Sumitomo Chemical Company, Limited, priority 2010, dated 2013) are described below.

Holding throughout (assay type): in vivo
Assay [1] concerns American cockroaches (Periplaneta Americana). As to the kind of experiment: Test Example 1: oil solution spray knock-down test on American cockroaches. The conditions noted are these: 0.1% (w/v) oil solution, 1.5 ml sprayed, adult American cockroaches. Here is the method: Zero point one (0.1) part of the compound of the present inventions (1) to (6) was dissolved in 10 parts of isopropyl alcohol and the solution was mixed with 89.9 parts of deodorized kerosene to prepare a 0.1% (w/v) oil solution.
(§1) Six adult American cockroaches (Periplaneta Americana, 3 males and 3 females) were released in a test container (diameter 12.5 cm, 10 cm high, the bottom face is made of 16 mesh metallic wire), the inner face on which butter was applied, and the container was set at the bottom of a test chamber (bottom face: 46 cm×46 cm, height: 70 cm). Each 1.5 ml of the oil solution of the compound of the present invention (1) to (6) was sprayed using a spray gun at a pressure of 0.4 kg/cm^2 from 60 cm higher than the upper face of the container. Thirty seconds after the spraying, the container was pulled out from the chamber. After a prescribed time, the number of knocked-down cockroaches was counted and a knock-down ratio was determined (repeated twice). The knocked-down ratio was calculated by the following equation. Knocked-down ratio(%)=(Number of knocked-down cockroaches/Number of test cockroaches)×100
For comparison, the test was conducted in the same manner as the above, except for using 2,5-dioxo-3-(2-propynyl)imidazolidinylmethyl=(1R)-trans-3-(2-methyl-1-propenyl)-2,2-dimethylcyclopropane carboxylate (compound described in Pesticide Science, 10, p. 291 (1979), hereinafter referred to as the comparative compound (1)) represented by the following formula:
[drawing 41] and 2,5-dioxo-3-(2-propynyl)imidazolidinylmethyl=(1R)-cis-3-((Z)-2-cyano-2-methoxyethenyl)-2,2-dimethylcyclopropane carboxylate (compound described in JP-A-60-16962, hereinafter referred to as the comparative compound (2)) represented by the following formula: […]

In assay [2] the test system is common mosquitoes (Culex pipens pallens). Nature of the assay: Test Example 3: oil solution spray knock-down test on common mosquitoes in glass chamber. To be noted: 0.025% (w/v) oil solution sprayed into 70 cm cubic glass chamber; adult female common mosquitoes; three minutes after spraying. As for the experimental part: (§2) Zero point zero two five (0.025) part of the compound of the present invention (1) and (13) was dissolved in 10 parts of isopropyl alcohol, and the solution was mixed with 89.975 parts of deodorized kerosene to prepare a 0.025% (w/v) oil solution.
Ten adult female common mosquitoes (Culex pipens pallens) were released in a cubic glass chamber having each side of 70 cm. The oil solution of the compound of the present invention (1) and (13) was sprayed into the chamber through a small window on the side of the chamber using a spraying gun at a pressure of 0.9 kg/cm^2. Three minutes after spraying, the number of knocked-down mosquitoes was counted and a knock-down ratio was determined. A knocked-down ratio was calculated by the following equation. Knocked-down ratio(%)=(Number of knocked-down mosquitoes/Number of test mosquitoes)×100

Assay [3] relates to houseflies (Musca domestica). Nature of the assay: Test Example 4: oil solution spray knock-down test on houseflies in glass chamber. The conditions noted are these: 0.025% (w/v) oil solution, 0.7 ml sprayed into 70 cm cubic glass chamber; adult houseflies; five minutes after spraying. As for the experimental part: as §2
Ten adult houseflies (Musca domestica) were released in a cubic glass chamber having each side of 70 cm, and 0.7 ml of the oil solution of the compound of the present invention (1) and (13) was sprayed into the chamber through a small window on the side of the chamber using a spraying gun at a pressure of 0.9 kg/cm^2. Five minutes after spraying, the number of knocked-down flies was counted and a knock-down ratio was determined. A knocked-down ratio was calculated by the following equation. Knocked-down ratio(%)=(Number of knocked-down flies/Number of test flies)×100

Assay [4] relates to American cockroaches (Periplaneta Americana). As to the kind of experiment: Test Example 8: oil solution spray knock-down test on American cockroaches, 3 minutes. The conditions noted are these: 0.1% (w/v) oil solution, 1.5 ml sprayed, adult American cockroaches. As for the experimental part: Zero point one (0.1) part of the compound of the present inventions (1) to (6) and (9) to (12) was dissolved in 10 parts of isopropyl alcohol and the solution was mixed with 89.9 parts of deodorized kerosene to prepare a 0.1% (w/v) oil solution.
as §1, with “(6) and (9) to (12)” for “(6)”, “Three minutes after spraying,” for “After a prescribed time,”

For assay [5], the system named is German cockroaches (Blattella germanica). Nature of the assay: Test Example 2: oil solution spray knock-down test on German cockroaches. To be noted: 0.00625% (w/v) oil solution, 1.5 ml sprayed, adult German cockroaches. Here is the method: Zero point zero six two five (0.00625) part of the compound of the present inventions (1) to (6) and (9) to (12) was dissolved in 10 parts of isopropyl alcohol and the solution was mixed with 89.99375 parts of deodorized kerosene to prepare a 0.00625% (w/v) oil solution.
Ten adult German cockroaches (Blattella germanica, 5 males and 5 females) were released in a test container (diameter 8.75 cm, 7.5 cm high, the bottom face is made of 16 mesh metallic wire), the inner face on which butter was applied, and the container was set at the bottom of a test chamber (bottom face: 46 cm×46 cm, height: 70 cm).
Each 1.5 ml of the oil solution of the compound of the present invention (1) to (6) and (9) to (12) was sprayed using a spray gun at a pressure of 0.4 kg/cm^2 from 60 cm higher than the upper face of the container. Thirty seconds after the spraying, the container was pulled out from the chamber. After a prescribed time, the number of knocked-down cockroaches was counted and a knock-down ratio was determined (repeated once). A knocked-down ratio was calculated by the following equation. Knocked-down ratio(%)=(Number of knocked-down cockroaches/Number of test cockroaches)×100 The results (2 minutes after spraying) are shown in Table 2.

For the compound `C#CCN1CC(=O)N(COC(=O)[C@@H]2[C@@H](C=C(C#N)SC)C2(C)C)C1=O` (relative stereo) [compound of the present invention (1), 2,5-dioxo-3-(2-propynyl)imidazolidinylmethyl=(1R)-trans-3-[(1EZ)-2-cyano-2-(methylthio)ethenyl]-2,2-dimethylcyclopropane carboxylate], in assay [1], the “Knock-down ratio (%) 2 minutes after spraying” value (“Knock-down ratio (%) 2 minutes” below) came to 100%. Moreover, the Knocked-down ratio in assay [2] and in assay [3] was 100% throughout.
Turning to `C#CCN1CC(=O)N(COC(=O)[C@@H]2[C@@H](C=C(C#N)SCCCC)C2(C)C)C1=O` [compound of the present invention (5), 2,5-dioxo-3-(2-propynyl)imidazolidinylmethyl=(1R)-trans-3-[(1EZ)-2-cyano-2-(butylthio)ethenyl]-2,2-dimethylcyclopropane carboxylate], in assay [4], the “Knock-down ratio (%) 3 minutes after spraying” value (“Knock-down ratio (%) 3 minutes” below) is 100%. Besides, the entries for the “Knock-down ratio (%) 2 minutes” value in assay [1] and in assay [5] were 83% and 100%, respectively.
With `C#CCN1CC(=O)N(COC(=O)[C@@H]2[C@@H](C=C(C#N)SC(C)C)C2(C)C)C1=O` [compound of the present invention (6), 2,5-dioxo-3-(2-propynyl)imidazolidinylmethyl=(1R)-trans-3-[(1EZ)-2-cyano-2-(isopropylthio)ethenyl]-2,2-dimethylcyclopropane carboxylate], the “Knock-down ratio (%) 3 minutes” value in assay [4] was determined as 100%. The “Knock-down ratio (%) 2 minutes” value was 92% in assay [1] and 100% in assay [5].
For `C#CCN1CC(=O)N(COC(=O)[C@@H]2[C@@H](/C=C(\C#N)SCC)C2(C)C)C1=O` [compound of the present invention (13), 2,5-dioxo-3-(2-propynyl)imidazolidinylmethyl=(1R)-trans-3-[(1E)-2-cyano-2-(ethylthio)ethenyl]-2,2-dimethylcyclopropane carboxylate], the “Knock-down ratio (%) 3 minutes” value in assay [4] came out at 100%. For the same compound, the Knocked-down ratio in assay [2] and in assay [3] was 100% throughout. For the same compound, in assay [5], the “Knock-down ratio (%) 2 minutes” value is 100%.
Regarding `C#CCN1CC(=O)N(COC(=O)[C@@H]2[C@@H](C=C(C#N)SCCC)C2(C)C)C1=O` [compound of the present invention (3), 2,5-dioxo-3-(2-propynyl)imidazolidinylmethyl=(1R)-trans-3-[(1EZ)-2-cyano-2-(propylthio)ethenyl]-2,2-dimethylcyclopropane carboxylate], in assay [4], the “Knock-down ratio (%) 3 minutes” value worked out at 100%. Moreover, the “Knock-down ratio (%) 2 minutes” value in assay [1] and in assay [5] was 100% throughout.
Take `C#CCN1CC(=O)N(COC(=O)[C@@H]2[C@@H](C=C(C#N)SCC)C2(C)C)C1=O` (relative stereo) [compound of the present invention (9), 2,5-dioxo-3-(2-propynyl) imidazolidinylmethyl=(1R)-trans-3-[(1EZ)-2-cyano-2-(ethylthio)ethenyl]-2,2-dimethylcyclopropane carboxylate]: in assay [4], the “Knock-down ratio (%) 3 minutes” value was 100%. Also, the “Knock-down ratio (%) 2 minutes” value in assay [5] is recorded as 100%.
Turning to `C#CCN1CC(=O)N(COC(=O)[C@@H]2[C@@H](C=C(C#N)SCC)C2(C)C)C1=O` (relative stereo) [compound of the present invention (2), 2,5-dioxo-3-(2-propynyl)imidazolidinylmethyl=(1R)-trans-3-[(1EZ)-2-cyano-2-(ethylthio)ethenyl]-2,2-dimethylcyclopropane carboxylate], the “Knock-down ratio (%) 2 minutes” value in assay [1] came to 100%.
Turning to `C#CCN1CC(=O)N(COC(=O)[C@@H]2[C@@H](C=C(C)C)C2(C)C)C1=O` [comparative compound (1), 2,5-dioxo-3-(2-propynyl)imidazolidinylmethyl=(1R)-trans-3-(2-methyl-1-propenyl)-2,2-dimethylcyclopropane carboxylate, reference compound], the “Knock-down ratio (%) 2 minutes” value in assay [1] was 58%.
Consider `C#CCN1CC(=O)N(COC(=O)[C@@H]2[C@@H](C=C(C#N)SC)C2(C)C)C1=O` (relative stereo) [compound of the present invention (10), 2,5-dioxo-3-(2-propynyl)imidazolidinylmethyl=(1R)-trans-3-[(1EZ)-2-cyano-2-(methylthio)ethenyl]-2,2-dimethylcyclopropane carboxylate], for which, in assay [4], the “Knock-down ratio (%) 3 minutes” value was 100%. Besides, the “Knock-down ratio (%) 2 minutes” value in assay [5] worked out at 100%.
As to `C#CCN1CC(=O)N(COC(=O)[C@@H]2[C@H](/C=C(/C#N)OC)C2(C)C)C1=O` [comparative compound (2), 2,5-dioxo-3-(2-propynyl)imidazolidinylmethyl=(1R)-cis-3-((Z)-2-cyano-2-methoxyethenyl)-2,2-dimethylcyclopropane carboxylate, reference compound], the “Knock-down ratio (%) 2 minutes” value in assay [1] amounted to 42%.
